From patent US8168596B2, “Use of cycloartane compounds for treating arthritis” (NuLiv Holding Inc., priority 2008, dated 2012) come the findings set out here.

Common to all, as to type: cell-based, human
Experiment [1] has as its system MMP-1. Kind of experiment: Western blot of MMP-1 in PMA- or IL-1β-pre-treated SW1353 cells (Example 6). The settings on record: 48 h. As for the experimental part: The cells were then plated on 6-cm dishes at a density of 1×10^6 cells/dish for 24 hours prior to any treatment. At the beginning of the experiment, the cells were pre-treated with 100 ng/mL PMA or 10 ng/mL IL-1β for 24 hours. The cells were then treated 0.1 μM Dexamethasone with, various astragaloside compounds (0.1 μM) or extracts of Astragalus membranaceous (1 μg/mL) at indicated dosages for another 48 hours. For control sample, 0.1% DMSO was used as a negative control for these experiments. The conditioned culture mediums were then centrifuged, 2-fold concentrated and collected for assay of collagens or MMPs secreted into the culture medium.
Western blotting analysis was carried out on both cultured medium and cell lysates, as follows. The cells were washed and lysed in 0.2 mL of lysis buffer (1% NP-40, 50 mM Tris-HCl, pH 7.4, 180 mM NaCl, 1 mM EDTA, 1 mM PMSF, 1 mM NaF, 10 mM Na3VO4) for 30 min at 4° C. After centrifuging at 17500 g for 15 min, the supernatants of cell lysate were also collected. Protein concentration of the samples were measured using the bicinchoninic acid (BCA) protein assay kit according to the manufacturer's protocol (Pierce, Rockford, Ill., USA). Equal amount of protein samples of concentrated conditioned medium (100 μg) or cell lysate supernatants (50 μg) were mixed with an appropriate volume of 4×SDS sampling buffer and separated by 8% SDS-PAGE gel. The protein bands separated in the SDS-PAGE gel were blotted onto a polyvinylidene fluoride (PVDF) membrane. The blotted PVDF membrane was washed twice and blocked in freshly prepared Tris-buffered saline (TBS) containing 0.1% Tween-20 and 7% skim milk (TBST) for 2 hours at room temperature. The PVDF membrane was then incubated with either antibodies against collagen I and III or the housekeeping protein α-tubulin (Santa Cruz Biotechnology, Santa Cruz, Calif.) for 18 hours at 4° C. Horseradish peroxidase-conjugated anti-goat antibody was used as secondary antibody. Signals were visualized by an enhanced chemiluminescence kit (Clonetech, Palo Alto, Calif., USA) followed by exposure to X-ray films.
On the technique in general: A western blot detects proteins with antibodies after separation by electrophoresis.

For experiment [2], the system named is MMP1 mRNA. Kind of experiment: RT-PCR of MMP1 mRNA expression in SW1353 cells. The settings on record: for MMP1 mRNA expression after AS4 treatment followed by PMA: then 100 ng/mL PMA 24 h; for MMP1 mRNA expression after only AS4 treatment: 24 h, no PMA. As for the experimental part:
(§1) First of all, the interaction between TIMP1 mRNA expression and MMP1 mRNA expression in human SW1353 cell line after only AS4 treatment was studied. […] The SW1353 cells were then collected for RT-PCR analysis.
(§2) In a second testing, the effect of AS4 treatment followed by PMA treatment was also studied. The SW1353 cells were first treated with astragaloside IV (AS4) at a concentration of 0.01 μM, 0.1 μM, or 1 μM, followed by incubation for 24 hours. Then PMA was added into each well, followed by incubation for 24 hours. These SW1353 cells were also collected for RT-PCR analysis in the end of the second testing.
(§3) Total RNAs were isolated from the cultured human cells using NucleoSpin RNAII Kit (Macherey-Nagel Inc., PA, USA). Five μg of RNA was reverse transcribed in a total 20 μl transcription mixture. The reaction tube containing primers (oligo(dT)), RNA, 10 mM dNTP Mix, and DEPC-treated water was first incubated at 65° C. for 5 minutes. Eight μl master reaction mixture containing 4 μl 5× cDNA synthesis Buffer, 1 μl 0.1 M DTT, 1 μl RNase OUT™ (40U/μl), 1 μl DEPC-Treated water, and 1 μl SuperScript™II was then added into the reaction tube. The reaction tube was then incubated at 50° C. for 60 minutes, followed by incubation at 85° C. for 5 minutes. Finally, 1 μl RNase H was added at 37° C. and the reaction tube was incubated for 20 minutes. The resulting cDNA was further amplified by PCR. The relevant primers for the following PCR reaction were listed below.
(i) The MMP1 forward primer is 5′-ACTCTGGAGTAATGTCACACCT-3′ (SEQ ID NO: 1), and the MMP1 reverse primer is 5′-GTTGGTCCACCTTTCATCTTCA-3′ (SEQ ID NO: 2);
(§4) In addition, the PCR reaction of MMP1 cDNA was preformed as follows: 95° C. for 5 min, followed by 35 cycles of 94° C. for 30 sec, 60° C. for 30 sec, and 72° C. for 30 sec, and then 72° C. for 10 min followed by maintaining at 4° C. Similarly, the PCR reaction of TIMP1 cDNA was performed as follows: 94° C. for 5 min, followed by 35 cycles of 94° C. for 30 sec, 60° C. for 30 sec, and 72° C. for 30 sec, and then 72° C. for 10 min followed by maintaining at 4° C. The PCR reaction of GAPDH cDNA was performed as follows: 94° C. for 5 min, followed by 18 cycles of 94° C. for 30 sec, 54° C. for 30 sec, and 72° C. for 30 sec, and then 72° C. for 30 sec followed by maintaining at 4° C. These PCR products were analyzed by electrophoresis on a 1.5% gel.

Experiment [3] concerns TIMP1 mRNA. Kind of experiment: RT-PCR of TIMP1 mRNA expression in SW1353 cells. The settings on record: for TIMP1 mRNA expression after AS4 treatment followed by PMA: then 100 ng/mL PMA 24 h; for TIMP mRNA expression after only AS4 treatment: 24 h, no PMA. As for the experimental part:
as §1, §2, §3
(ii) the TIMP1 forward primer is 5′-AATTCCGACCTCGTCATCAG-3′ (SEQ ID NO: 3) and the TIMP1 reverse primer is 5′-TGCAGTTTTCCAGCAATGAG-3′ (SEQ ID NO: 4); and
as §4

`CC(C)(O)[C@@H]1CC[C@](C)([C@H]2[C@@H](O)C[C@@]3(C)[C@@H]4C[C@H](O[C@@H]5O[C@H](CO)[C@@H](O)[C@H](O)[C@H]5O)[C@H]5C(C)(C)[C@@H](O[C@@H]6OC[C@@H](O)[C@H](O)[C@H]6O)CC[C@@]56C[C@@]46CC[C@]23C)O1` [AS4, Astragaloside IV]: the “MMP-1, Western blot, relative to Ctrl 1.00” value in experiment [1] (IL-1β-pre-treated SW1353 cell extract, compounds 0.1 μM) was 0.22; in experiment [1] (PMA-pre-treated SW1353 cell extract, 0.1 μM), 0.74. For the same compound, the “MMP1 mRNA expression after AS4 treatment followed by PMA” value in experiment [2] (AS4 0.01 μM 24 h) turned out to be 0.98; in experiment [2] (AS4 0.1 μM 24 h), 0.84; in experiment [2] (AS4 1 μM 24 h), 0.53. Further, the “MMP1 mRNA expression after only AS4 treatment” value in experiment [2] (AS4 0.01 μM) came to 0.97; in experiment [2] (AS4 0.1 μM), 1.07; in experiment [2] (AS4 1 μM), 0.93. Also, the results for the “TIMP1 mRNA expression after AS4 treatment followed by PMA” value in experiment [3] (AS4 0.01 μM 24 h), in experiment [3] (AS4 0.1 μM 24 h) and in experiment [3] (AS4 1 μM 24 h) were 1.36, 1.34 and 1.31, respectively. The “TIMP mRNA expression after only AS4 treatment” value worked out at 0.87 in experiment [3] (AS4 0.01 μM), 0.90 in experiment [3] (AS4 0.1 μM) and 0.84 in experiment [3] (AS4 1 μM).
